Laboratory results taken from ChEMBL document CHEMBL5053528, “Discovery of 2-(Ortho-Substituted Benzyl)-Indole Derivatives as Potent and Orally Bioavailable RORγ Agonists with Antitumor Activity” (J Med Chem, 2021).
One block for each compound: values may come before it.

Experiments:
[1] = Microsomal stability in human liver microsomes assessed as half life; assay type: ADME, Microsome
[2] = Microsomal stability in rat liver microsomes assessed as half life; assay type: ADME, Microsome
[3] = biological target: T1, Nuclear receptor ROR-gamma (Homo sapiens) (UniProt P51449); experiment: Partial agonist activity at human RORgamma in cytostim stimulated human PBMC cells assessed as increase in IL-17 production by measuring maximal efficacy preincubated with cytostim for 72 hrs by ELISA relative to control; assay type: cell-based; settings: filed as partial agonist
T1 sequence (whole entry): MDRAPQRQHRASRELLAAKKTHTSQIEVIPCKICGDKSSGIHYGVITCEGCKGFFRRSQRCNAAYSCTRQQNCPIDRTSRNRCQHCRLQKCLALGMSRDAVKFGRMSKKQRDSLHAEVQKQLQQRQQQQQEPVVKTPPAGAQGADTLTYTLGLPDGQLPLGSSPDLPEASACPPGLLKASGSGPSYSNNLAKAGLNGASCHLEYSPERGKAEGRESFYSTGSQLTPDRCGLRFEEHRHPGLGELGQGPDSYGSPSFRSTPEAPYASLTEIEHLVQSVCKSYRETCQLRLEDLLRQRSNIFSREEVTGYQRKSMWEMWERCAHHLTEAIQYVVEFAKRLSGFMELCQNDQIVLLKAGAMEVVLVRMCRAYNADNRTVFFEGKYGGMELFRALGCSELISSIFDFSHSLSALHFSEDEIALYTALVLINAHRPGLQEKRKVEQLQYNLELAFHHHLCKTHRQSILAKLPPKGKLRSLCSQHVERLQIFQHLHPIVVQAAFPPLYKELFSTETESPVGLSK

[4] = biological target: T2, Nuclear receptor ROR-gamma (Homo sapiens, UniProt P51449); experiment: Agonist activity at N-terminal GST tagged human RORgamma LBD using fluorescein-D22 as coactivator incubated for 60 mins by Lanthascreen TR-FRET assay
T2 sequence (P51449 whole entry): T1 sequence (whole entry)

[5] = biological target: T2, Nuclear receptor ROR-gamma; experiment: Partial agonist activity at human RORgamma in cytostim stimulated human PBMC cells assessed as […] in differentiation of TH17 cells by measuring IL-17 production preincubated with cytostim for 72 hrs by ELISA; assay type: cell-based
[6] = AUC (0 to t) in mouse at 1 mg/kg, iv; assay type: ADME, organism-based; set-up: dose 1 mg/kg, route iv; settings: in vivo
[7] = Drug metabolism in dog plasma assessed as amide hydrolysis metabolite formation at 1 mg/kg, iv; assay type: ADME, organism-based, Canis lupus familiaris; settings: in vivo
[8] = Volume of distribution in dog at 0.5 mg/kg, iv; assay type: ADME, organism-based, Canis lupus familiaris; settings: in vivo
[9] = Clearance in rat at 1 mg/kg, iv; assay type: ADME, organism-based; settings: in vivo
[10] = Half life in rat at 1 mg/kg, iv; assay type: ADME, organism-based; settings: in vivo
[11] = AUC (0 to t) in dog at 0.5 mg/kg, iv; assay type: ADME, organism-based, Canis lupus familiaris; set-up: dose 0.5 mg/kg, route iv; settings: in vivo
[12] = Volume of distribution in rat at 1 mg/kg, iv; assay type: ADME, organism-based; settings: in vivo
[13] = Half life in mouse at 1 mg/kg, iv; assay type: ADME, organism-based; settings: in vivo
[14] = Volume of distribution in mouse at 2 mg/kg, po; assay type: ADME, organism-based; settings: in vivo
[15] = AUC (0 to t) in mouse at 2 mg/kg, po; assay type: ADME, organism-based; set-up: dose 2 mg/kg, route po; settings: in vivo
[16] = Drug metabolism in rat plasma assessed as amide hydrolysis metabolite formation at 1 mg/kg, iv; assay type: ADME, organism-based; settings: in vivo
[17] = Clearance in mouse at 1 mg/kg, iv; assay type: ADME, organism-based; settings: in vivo
[18] = AUC (0 to t) in rat at 1 mg/kg, iv; assay type: ADME, organism-based; set-up: dose 1 mg/kg, route iv; settings: in vivo
[19] = Cmax in dog at 2 mg/kg, po; assay type: ADME, organism-based, Canis lupus familiaris; set-up: dose 2 mg/kg, route po; settings: in vivo
[20] = Half life in mouse at 2 mg/kg, po; assay type: ADME, organism-based; settings: in vivo
[21] = Volume of distribution in mouse at 1 mg/kg, iv; assay type: ADME, organism-based; settings: in vivo, read-out: Vd
[22] = biological target: T2, Nuclear receptor ROR-gamma; experiment: Agonist activity at human RORgamma in cytostim stimulated human PBMC cells assessed as increase in differentiation of TH17 cells by measuring IL-17 production preincubated with cytostim for 72 hrs by ELISA; assay type: cell-based
[23] = Half life in dog at 0.5 mg/kg, iv; assay type: ADME, organism-based, Canis lupus familiaris; settings: in vivo
[24] = Half life in dog at 2 mg/kg, po; assay type: ADME, organism-based, Canis lupus familiaris; settings: in vivo
[25] = Cmax in mouse at 2 mg/kg, po; assay type: ADME, organism-based; set-up: dose 2 mg/kg, route po; settings: in vivo
[26] = Clearance in dog at 0.5 mg/kg, iv; assay type: ADME, organism-based, Canis lupus familiaris; settings: in vivo
[27] = Cmax in rat at 2 mg/kg, po; assay type: ADME, organism-based; set-up: dose 2 mg/kg, route po; settings: in vivo
[28] = Volume of distribution in dog at 2 mg/kg, po; assay type: ADME, organism-based, Canis lupus familiaris; settings: in vivo
[29] = Oral bioavailability in rat; assay type: ADME, organism-based; settings: in vivo
[30] = AUC (0 to t) in dog at 2 mg/kg, po; assay type: ADME, organism-based, Canis lupus familiaris; set-up: dose 2 mg/kg, route po; settings: in vivo
[31] = Drug metabolism in dog liver microsomes assessed as amide hydrolysis metabolite formation at 1 mg/kg, iv; assay type: ADME, Canis lupus familiaris, Microsome
[32] = Oral bioavailability in mouse; assay type: ADME, organism-based; settings: in vivo
[33] = Oral bioavailability in dog; assay type: ADME, organism-based, Canis lupus familiaris; settings: in vivo
[34] = Drug metabolism in rat liver microsomes assessed as amide hydrolysis metabolite formation at 1 mg/kg, iv; assay type: ADME, Microsome
[35] = AUC (0 to t) in rat at 2 mg/kg, po; assay type: ADME, organism-based; set-up: dose 2 mg/kg, route po; settings: in vivo

- half-life [1]: 15 min
- half-life [2]: 12 min
Compound: CCS(=O)(=O)c1ccc(CNC(=O)c2ccc3c(c2)cc(Cc2ccccc2Br)n3C(C)C)cc1

- half-life [1]: 13 min
- Emax [3]: 79%
- EC50 [4]: 25 nM
- half-life [2]: 12 min
- EC50 [5]: 2 nM
Compound: CCc1ccccc1Cc1cc2cc(C(=O)NCc3ccc(S(=O)(=O)CC)cc3)ccc2n1C(C)C

- AUC(0-t) [6]: 20000 ng·h/mL
- Drug metabolism [7]: Metabolite_Detected
- Vd [8]: 2.05 L/kg
- clearance [9]: 60.2 mL/min/kg
- half-life [10]: 51.6 min
- AUC(0-t) [11]: 309 ng·h/mL
- half-life [1]: 173 min
- Vd [12]: 4.48 L/kg
- EC50 [4]: 2 nM
- half-life [13]: 160 min
- Vd [14]: 0.569 L/kg
- AUC(0-t) [15]: 18900 ng·h/mL
- Drug metabolism [16]: Metabolite_Detected
- clearance [17]: 0.834 mL/min/kg
- AUC(0-t) [18]: 277 ng·h/mL
- Cmax [19]: 55.9 ng/mL
- half-life [20]: 223 min
- Vd [21]: 0.193 L/kg
- EC50 [22]: 2 nM
- half-life [23]: 52.6 min
- half-life [24]: 128 min
- Cmax [25]: 3270 ng/mL
- clearance [26]: 27.2 mL/min/kg
- Cmax [27]: 6.4 ng/mL
- Vd [28]: 73.7 L/kg
- bioavailability [29]: 0.673%
- AUC(0-t) [30]: 103 ng·h/mL
- Drug metabolism [31]: Metabolite_Detected
- bioavailability [32]: 47.3%
- half-life [2]: 126 min
- bioavailability [33]: 8.33%
- Drug metabolism [34]: Metabolite_Detected
- AUC(0-t) [35]: 3.73 ng·h/mL
Compound: CCS(=O)(=O)c1ccc(CNC(=O)c2ccc3c(c2)cc(Cc2ccc(Cl)cc2C(F)(F)F)n3CCF)cc1
